Holding throughout (type): functional
The test system of experiment [1] is Mycobacterium tuberculosis. The experiment in a line: Antimycobacterial activity against INH, RFP, EB, LVFX, SPFX, CPFX-resistant Mycobacterium tuberculosis isolate 1.
The subject of experiment [2] is Mycobacterium tuberculosis. The experiment in a line: Antimycobacterial activity against INH, RFP, EB, LVFX, SPFX, CPFX-resistant Mycobacterium tuberculosis isolate 2.
The subject of experiment [3] is Mycobacterium tuberculosis. The experiment in a line: Antimycobacterial activity against RFP, EB-resistant Mycobacterium tuberculosis isolate 3.
For experiment [4], the system named is Mycobacterium tuberculosis. The experiment in a line: Antimycobacterial activity against INH, RFP, EB, LVFX, CPFX-resistant Mycobacterium tuberculosis isolate 4.
Experiment [5] concerns Mycobacterium tuberculosis. Description: Antimycobacterial activity against INH, RFP, EB, KM, LVFX, SPFX, CPFX-resistant Mycobacterium tuberculosis isolate 5.
Experiment [6] relates to Mycobacterium tuberculosis. Description: Antimycobacterial activity against INH, RFP, SM, EB, KM, LVFX, SPFX, CPFX-resistant Mycobacterium tuberculosis isolate 6.
Experiment [7] has as its system Mycobacterium tuberculosis. Description: Antimycobacterial activity against RFP-resistant Mycobacterium tuberculosis isolate 7.
The subject of experiment [8] is Mycobacterium tuberculosis. The experiment in a line: Antimycobacterial activity against RFP-resistant Mycobacterium tuberculosis isolate 8.
Experiment [9] concerns Mycobacterium tuberculosis. Description: Antimycobacterial activity against INH, RFP, KM, LVFX, SPFX, CPFX-resistant Mycobacterium tuberculosis isolate 9.
Experiment [10] relates to Mycobacterium tuberculosis. Description: Antimycobacterial activity against RFP-resistant Mycobacterium tuberculosis isolate 10.
The subject of experiment [11] is Mycobacterium tuberculosis. Description: Antimycobacterial activity against INH, RFP, EB, KM, LVFX, SPFX, CPFX-resistant Mycobacterium tuberculosis isolate 11.
The subject of experiment [12] is Mycobacterium tuberculosis. The experiment in a line: Antimycobacterial activity against INH, RFP, EB-resistant Mycobacterium tuberculosis isolate 12.
Experiment [13] has as its system Mycobacterium tuberculosis. Description: Antimycobacterial activity against INH, RFP, SM, EB-resistant Mycobacterium tuberculosis isolate 13.
Experiment [14] has as its system Mycobacterium tuberculosis. The experiment in a line: Antimycobacterial activity against INH, RFP, EB-resistant Mycobacterium tuberculosis isolate 14.
Experiment [15] concerns Mycobacterium tuberculosis. The experiment in a line: Antimycobacterial activity against INH, RFP, EB, LVFX, SPFX, CPFX-resistant Mycobacterium tuberculosis isolate 15.
For experiment [16], the system named is Mycobacterium tuberculosis. The experiment in a line: Antimycobacterial activity against INH, RFP, SM, EB, KM, PAS, EVM, LVFX-resistant Mycobacterium tuberculosis isolate 16.
The test system of experiment [17] is Mycobacterium tuberculosis. Description: Antimycobacterial activity against INH, RFP-resistant Mycobacterium tuberculosis isolate 17.
Experiment [18] concerns Mycobacterium tuberculosis. Description: Antimycobacterial activity against INH, RFP, SM, EB, PAS-resistant Mycobacterium tuberculosis isolate 18.
Experiment [19] relates to Mycobacterium tuberculosis. The experiment in a line: Antimycobacterial activity against INH, RFP, SM, EB, PAS, LVFX-resistant Mycobacterium tuberculosis isolate 19.
In experiment [20] the test system is Mycobacterium tuberculosis. Description: Antimycobacterial activity against INH, RFP, ETH-resistant Mycobacterium tuberculosis isolate 20.

The structures appear in SMILES notation. Values after ≈ are worked out from the molar mass of the structure shown.

The term MIC denotes the least concentration at which growth counts as inhibited. High values mean a less susceptible organism, low ones a more susceptible organism. For `CC(=O)N[C@@H]1[C@@H](O)[C@H](O)[C@@H](CO)O[C@H]1SC(=S)N1CCCC1`, the MIC in experiment [1] came to 6.25 µg/mL (≈ 17.8 µM); in experiment [2] it was 6.25 µg/mL (≈ 17.8 µM); in experiment [3], 6.25 µg/mL (≈ 17.8 µM); in experiment [4], 12.5 µg/mL (≈ 35.7 µM); in [5], 6.25 µg/mL (≈ 17.8 µM); in experiment [6], 6.25 µg/mL (≈ 17.8 µM). Besides, the MIC in experiment [7] turned out to be 6.25 µg/mL (≈ 17.8 µM); in experiment [8] it was 6.25 µg/mL (≈ 17.8 µM); in [9], 6.25 µg/mL (≈ 17.8 µM); in experiment [10], 12.5 µg/mL (≈ 35.7 µM); in [11], 12.5 µg/mL (≈ 35.7 µM); in experiment [12] it was 6.25 µg/mL (≈ 17.8 µM). Also, the MIC in experiment [13], in experiment [14], in [15], in experiment [16], in [17] and in experiment [18] was 6.25 µg/mL (≈ 17.8 µM) throughout. The MIC in experiment [19] was 12.5 µg/mL (≈ 35.7 µM); in experiment [20], 6.25 µg/mL (≈ 17.8 µM).
As to `N.S=C(S)N1CCCC1` [PYRROLIDINE DITHIOCARBAMIC ACID, AMMONIUM SALT], the MIC amounted to 0.2 µg/mL in experiment [1]; 0.2 µg/mL in [2]; 0.2 µg/mL in experiment [3]; 0.4 µg/mL in experiment [4]; 0.2 µg/mL in [5]; 0.2 µg/mL in experiment [6]. In addition, the MIC in experiment [7] came to 0.2 µg/mL; in [8], 0.2 µg/mL; in [9], 0.2 µg/mL; in experiment [10], 0.4 µg/mL; in experiment [11], 0.2 µg/mL; in experiment [12], 0.2 µg/mL. Also, the MIC in [13], in experiment [14], in [15], in experiment [16], in [17] and in experiment [18] was 0.2 µg/mL in each case. Also, the MIC in experiment [19] turned out to be 0.4 µg/mL; in experiment [20], 0.2 µg/mL.
